Consider 12 compounds from ChEMBL document CHEMBL1201862, “PubChem BioAssay data set” (2004).

Some test systems named below: HOP-92; A498; SK-MEL-28; 786-0; PC-3; UACC-62; EKVX; HL-60; UO-31; MDA-MB-435; SN12C; IGROV-1; CAKI-1; COLO 205; K562; RPMI-8226; M14; NCI/ADR-RES; SNB-75.
Assay in all cases: DTP human tumour cell line panel, 48 h

Molecules are shown by their SMILES. Structures can show the parent of a compound that is named as a salt.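 All cell lines were grown in 96-well plates and treated with compound for 48 hours. Here, GI50 denotes the concentration required for 50% inhibition of growth.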 Calls of active or inactive are those of the source. No stated cut-off is given here; in the data, active = GI50 up to about 1.1 µM and inactive = higher. Residues, ends and D or L forms follow the SMILES beside them. *: point of attachment. Boc = CC(C)(C)OC(=O)*

As to `O=C1NC(=S)N/C1=C\c1ccc(Br)s1`, the GI50 – broadly, the concentration at which growth is held to half of that of the control – is 82 µM (inactive) in the assay on HOP-92; 34.3 µM (inactive) in the assay with A498; > 100 µM (inactive) with SK-MEL-28; > 100 µM (inactive) in the assay with 786-0; 94.2 µM (inactive) in the assay on PC-3; 28 µM (inactive) with UACC-62. In addition, the GI50 in the assay on EKVX was 10.3 µM (inactive); with HL-60, 0.861 µM (active); in the assay with UO-31, 55.2 µM (inactive); with MDA-MB-435 it was 58.6 µM (inactive); in the assay on SN12C, > 100 µM (inactive); with IGROV-1, 93.5 µM (inactive). Further, the GI50 in the assay with CAKI-1 is 70.6 µM (inactive); in the assay on COLO 205, > 100 µM (inactive); in the assay with K562 it was 34.8 µM (inactive); in the assay with RPMI-8226, 27.7 µM (inactive).
Consider `Cc1nnc2sc(Cl)nn12`, for which the GI50 in the assay with A498 was 31.3 µM (inactive); in the assay on SK-MEL-28 it was 19.4 µM (inactive); with 786-0, 26.5 µM (inactive); in the assay on PC-3, 17.2 µM (inactive); in the assay on UACC-62, 4.51 µM (inactive); with EKVX, 24.9 µM (inactive). In addition, the GI50 in the assay with M14 is 13.6 µM (inactive); in the assay on NCI/ADR-RES it was 51.5 µM (inactive); in the assay on UO-31, 29.6 µM (inactive); with SNB-75, 45.3 µM (inactive); with MDA-MB-435, 7.64 µM (inactive); with SN12C, 32.4 µM (inactive). The GI50 with IGROV-1 is 16.4 µM (inactive); in the assay with CAKI-1 it was 21 µM (inactive); with COLO 205, 14.5 µM (inactive); with K562, 8.05 µM (inactive); with RPMI-8226, 6.1 µM (inactive).
Take `CNc1ccc(N)cc1C(=O)N1CCC[C@H]1CO`: the GI50 in the assay with A498, in the assay with SK-MEL-28, in the assay on 786-0, in the assay on PC-3, with UACC-62 and in the assay with EKVX was > 100 µM (inactive) in each case. Further, the GI50 in the assay on M14, in the assay with HL-60, in the assay on NCI/ADR-RES, with UO-31, in the assay on SNB-75 and in the assay with MDA-MB-435 was > 100 µM (inactive) in each case. Moreover, the GI50 in the assay with SN12C, in the assay with IGROV-1, in the assay on CAKI-1 and in the assay with COLO 205 was > 100 µM (inactive) in each case.
For `NC(C(F)(F)F)(C(F)(F)F)P(=O)(c1ccccc1)c1ccccc1`, the GI50 with HOP-92, in the assay on SK-MEL-28, in the assay on 786-0, with PC-3, in the assay with UACC-62 and in the assay with EKVX was > 100 µM (inactive) each time. Moreover, the GI50 in the assay on M14, in the assay with HL-60, with NCI/ADR-RES, in the assay with UO-31, with SNB-75 and with MDA-MB-435 was > 100 µM (inactive) each time. The GI50 in the assay on SN12C, with IGROV-1, in the assay with CAKI-1, in the assay on COLO 205, in the assay with K562 and in the assay with RPMI-8226 was > 100 µM (inactive) throughout.
As for `N#CC1(c2ccccc2)CCN(C2(c3ccccc3)CCCCC2)CC1`, the GI50 was > 100 µM (inactive) in the assay on SK-MEL-28; 94.2 µM (inactive) in the assay on 786-0; > 100 µM (inactive) in the assay with PC-3; > 100 µM (inactive) with UACC-62; > 100 µM (inactive) in the assay with EKVX; > 100 µM (inactive) in the assay on M14. Also, the GI50 in the assay on HL-60, with NCI/ADR-RES, in the assay on UO-31, in the assay on SNB-75, in the assay with MDA-MB-435 and with SN12C was > 100 µM (inactive) throughout. The GI50 in the assay on IGROV-1, with CAKI-1, in the assay on COLO 205, in the assay with K562 and in the assay with RPMI-8226 was > 100 µM (inactive) in each case.
With `CCOC(=O)c1nnsc1N/N=C\c1ccc([N+](=O)[O-])cc1`, the GI50 in the assay with SK-MEL-28 is > 100 µM (inactive); with 786-0, 80 µM (inactive); in the assay on PC-3 it was > 100 µM (inactive); in the assay on UACC-62, > 100 µM (inactive); with EKVX, > 100 µM (inactive); in the assay with M14, > 100 µM (inactive). Moreover, the GI50 in the assay with NCI/ADR-RES was > 100 µM (inactive); in the assay with UO-31, > 100 µM (inactive); with SNB-75 it was 44.5 µM (inactive); in the assay with MDA-MB-435, > 100 µM (inactive); with SN12C it was > 100 µM (inactive); with IGROV-1, > 100 µM (inactive). For the same compound, the GI50 in the assay with COLO 205, with K562 and in the assay on RPMI-8226 was > 100 µM (inactive) each time.
Turning to `COc1ccc([S+]([O-])Cc2cc(OC)c(OC)c(OC)c2)cc1` (stereo not given), the GI50 in the assay on SK-MEL-28 is 95.3 µM (inactive); with 786-0, > 100 µM (inactive); in the assay with PC-3 it was > 100 µM (inactive); in the assay with UACC-62 it was 42.4 µM (inactive); in the assay with EKVX, > 100 µM (inactive); with M14, 35.2 µM (inactive). Moreover, the GI50 is > 10 µM (inactive) in the assay on HL-60; 40.7 µM (inactive) with NCI/ADR-RES; > 100 µM (inactive) in the assay with UO-31; 45.4 µM (inactive) with SNB-75; 5.96 µM (inactive) in the assay on MDA-MB-435; 54.8 µM (inactive) in the assay with SN12C. Moreover, the GI50 in the assay on IGROV-1 was > 100 µM (inactive); with CAKI-1, 56.9 µM (inactive); with COLO 205, 52.8 µM (inactive); in the assay on K562, 14.7 µM (inactive); in the assay on RPMI-8226 it was 42.2 µM (inactive).
`Nc1nc(O)nc2snnc12`: the GI50 in the assay on HOP-92 is 20.3 µM (inactive); with SK-MEL-28 it was 6.27 µM (inactive); in the assay with 786-0, 6.38 µM (inactive); in the assay with PC-3, > 100 µM (inactive); in the assay with UACC-62, 7.26 µM (inactive); with EKVX, > 100 µM (inactive). Moreover, the GI50 was 7.35 µM (inactive) with M14; 2.79 µM (inactive) in the assay with HL-60; 32.6 µM (inactive) with NCI/ADR-RES; 3.99 µM (inactive) in the assay on UO-31; 5.28 µM (inactive) in the assay on SNB-75; 4.59 µM (inactive) in the assay on MDA-MB-435. For the same compound, the GI50 in the assay with SN12C was > 27.4 µM (inactive); in the assay with IGROV-1 it was > 100 µM (inactive); in the assay on CAKI-1 it was 1.77 µM (inactive); with COLO 205, > 100 µM (inactive); with K562 it was 7.26 µM (inactive); in the assay on RPMI-8226 it was 5.7 µM (inactive).
For `CCN1CCCC(Nc2cc(C)nc(NC(=N)Nc3ccc(Cl)c(Cl)c3)n2)C1` (stereo not given), the GI50 in the assay with HOP-92 was 1.31 µM (inactive); in the assay with SK-MEL-28, 1.77 µM (inactive); in the assay with 786-0 it was 1.54 µM (inactive); in the assay with UACC-62, 1.85 µM (inactive); with EKVX, 2.86 µM (inactive); with M14, 0.254 µM (active). The GI50 with HL-60 is 0.216 µM (active); in the assay with NCI/ADR-RES, 2.78 µM (inactive); with UO-31, 0.982 µM (active); with SNB-75, 1.25 µM (inactive); in the assay with MDA-MB-435, 1.49 µM (inactive); with SN12C, 2.58 µM (inactive). Moreover, the GI50 in the assay with IGROV-1 is 1.38 µM (inactive); in the assay on CAKI-1, 1.56 µM (inactive); in the assay on COLO 205, 1.27 µM (inactive); in the assay on K562, 0.217 µM (active); with RPMI-8226 it was 0.455 µM (active).
For `N#Cc1c(N)c2c(c(-c3ccccc3)c1-c1ccccc1)C(=O)N(N)C2=O`, the GI50 in the assay on HOP-92 was 26.9 µM (inactive); in the assay on SK-MEL-28, > 100 µM (inactive); in the assay on 786-0, 98.2 µM (inactive); with PC-3, 74.6 µM (inactive); with UACC-62 it was > 100 µM (inactive); in the assay on EKVX, > 100 µM (inactive). The GI50 in the assay with M14 is > 100 µM (inactive); in the assay with HL-60, 44 µM (inactive); in the assay with NCI/ADR-RES it was 56 µM (inactive); with UO-31 it was 40.3 µM (inactive); in the assay on SNB-75 it was > 100 µM (inactive); in the assay with MDA-MB-435, > 100 µM (inactive). Moreover, the GI50 with SN12C was > 100 µM (inactive); in the assay with IGROV-1, 60 µM (inactive); in the assay with CAKI-1 it was 25.2 µM (inactive); with COLO 205 it was > 100 µM (inactive); with K562 it was > 100 µM (inactive); in the assay with RPMI-8226, 32.7 µM (inactive).
Regarding `COC(=O)C(Cc1c[nH]c2ccccc12)NC(=O)C(Cc1c[nH]c2ccccc12)NC(=O)C(Cc1c[nH]c2ccccc12)NC(=O)C(Cc1c[nH]c2ccccc12)NC(=O)C(Cc1c[nH]c2ccccc12)NC(=O)C(Cc1c[nH]c2ccccc12)NC(=O)OC(C)(C)C` (stereo not given) (Boc-WWWWWW-OMe; configuration not given here), the GI50 in the assay with SK-MEL-28 was 14.4 µM (inactive); with 786-0 it was > 100 µM (inactive); in the assay on PC-3, 52.5 µM (inactive); in the assay on UACC-62, 32 µM (inactive); in the assay on M14, > 10 µM (inactive); in the assay on HL-60 it was > 100 µM (inactive). Besides, the GI50 was 33 µM (inactive) with UO-31; 46 µM (inactive) with SNB-75; > 100 µM (inactive) in the assay with MDA-MB-435; 49.9 µM (inactive) with SN12C; 36.9 µM (inactive) in the assay with IGROV-1; > 100 µM (inactive) with CAKI-1. The GI50 in the assay with K562 was > 100 µM (inactive); with RPMI-8226 it was 57 µM (inactive).
In the case of `CN[C@@H](C)[C@@H](O)c1ccccc1` [PSEUDOEPHEDRINE HYDROCHLORIDE], the GI50 in the assay with HOP-92, with SK-MEL-28, with 786-0, in the assay with PC-3, in the assay on EKVX and with M14 was > 100 µM (inactive) each time. Further, the GI50 in the assay with HL-60, with NCI/ADR-RES, in the assay on UO-31, in the assay with SNB-75, in the assay with MDA-MB-435 and in the assay with SN12C was > 100 µM (inactive) in each case. Moreover, the GI50 with IGROV-1, in the assay with CAKI-1, in the assay on COLO 205, with K562 and with RPMI-8226 was > 100 µM (inactive) each time.
